The values that follow come from article PMC5383040, “Inhibition of prenylated KRAS in a lipid environment” (PLoS ONE, 2017).

Test [1] addresses T1, GTPγS-loaded, prenylated KRAS^G12V (Homo sapiens, UniProt P01116, G12V).
T1 construct: made in house; host or cells: insect cells (Sf9, Sf21 or Tn5), baculovirus
Briefly: Coupled KRAS-BRAF-MEK assay (BRAF activation by KRAS, AlphaScreen pMEK readout). In kind it is biochemical.

Another test concerns the target T2, full length BRAF^V600E (Homo sapiens, UniProt P15056, V600E).
T2 construct: made in house; host or cells: insect cells (Sf9, Sf21 or Tn5), baculovirus pBlueBac4.5
The test can be described thus: BRAF^V600E counter-screen (coupled assay lacking KRAS). In kind it is biochemical. Here is the method:
An assay consisting of full length BRAF^V600E was used to flag inhibitors acting directly on BRAF, taking advantage of the constitutive activity of the BRAF mutant. […] The counter assay buffer, other components and order of addition matched the RAS-dependent assay except for the presence of KRAS. This assay was reproducible from run to run. […] After establishing reproducibility with this compound, all other compounds were measured with N≥2.

A further test deals with SW1990 cells. Briefly: Proliferation assay (CellTiter-Glo). It counts as cell-based. The note with it: Homo sapiens, 120 h, 5 days, read-out: Growth inhibition EC50. Here is the method:
Cells were seeded in 384-well plates and incubated with a 1:3 serial dilution of compound starting from 30 μM at 37°C with 5% CO2 for 5 days. Cell viability was measured using the CellTiter-Glo® Luminescent Cell Viability Assay kit (Promega) and read on an Envision (Perkin Elmer) plate reader. Percent growth inhibition was calculated by normalizing treatment to DMSO control. […] For every compound, each concentration was run in triplicate and all points were used for fitting a single curve.

A further test has as its system SW1990 cells (KRAS^G12D). The test can be described thus: Western blot analysis of pAKT and pERK in SW1990. It counts as cell-based, human. Particulars: 3hrs treatment, dose-response. The protocol: (§1) Cells were seeded in 6-well plates and treated with compounds or DMSO at the indicated concentrations for 3hrs. Total cell lysates were prepared in either M-PER (Pierce) or RIPA lysis buffer (50 mM Tris-HCl, pH 8.0, 150 mM NaCl, 0.5% NP-40, 0.5% sodium deoxycholate) supplemented with 1x protease inhibitor cocktail (Sigma) and 1x phosphatase inhibitor cocktails (Sigma). Lysates were normalized for protein concentration, resolved by SDS-PAGE, transferred onto nitrocellulose membranes and probed with the indicated antibodies.

The target in test [2] is T3, prenylated KRAS^G12V loaded with GTPγS (Homo sapiens, UniProt P01116, G12V).
T3 construct: Avi-tag-(Gly)8 –KRAS^G12V (2–188) was cloned into the pFastBac1 vector; made in house; host or cells: Tn5 insect cells, co-infected with BirA virus
Briefly: Biolayer interferometry (BLI) binding to full-length prenylated KRAS in PS. The note with it: for binding in BLI studies: at 10 μM, full-length prenylated KRAS in PS. In general terms: In BLI a coated tip is dipped into the sample, and binding shifts an interference pattern.
Protocol: Determination of Kds was performed on the Octet RED platform, according to the manufacturer's recommendations in their application note on small molecule analysis. The prenylated KRAS peptide containing the farnesyl group attached to the terminal cysteine (biotin-[sequence](farnesyl)-OCH3) was obtained from AnaSpec (Fremont, California). […] After incubation for 1h at RT, the protein was loaded into a 96-well plate (Greiner 655209), and loaded a BLI response of 3-4nm. […] A reference sensor was run to remove systematic drift, and a second set of SuperStreptavidin biosensors blocked with biocytin was examined to remove systematic optical interferences, and to check for non-specific binding of compounds to the biosensor. Kds were determined using the ForteBio analysis software tool, which determines Kd from the steady-state plot, or from the determination of the kinetic constants kon and koff.

Test [3] concerns the target T4, non-prenylated GDP-KRAS^G12V (Homo sapiens, UniProt P01116, G12V).
T4 construct: HSQC experiments were run with ^15N-labeled and GDP-loaded K-RAS^G12V (1–169)
The test can be described thus: HSQC NMR binding / titration. The note with it: non-processed GDP-loaded KRAS^G12V (1–169) in aqueous buffer, no PS; estimated from titration.
Protocol: (§2) The buffer contained 20mM Tris HCl, pH8.0, 50mM NaCl, 1mM MgCl2, 2mM DTT. […] 500 fragments from a fragment library [53] were screened by T1ρ ligand observation experiments, followed by protein-observed HSQC experiments. ^31P NMR spectra were acquired at 278°K on a Bruker AV400 spectrometer operating at 161.6 MHz ^31P frequency, equipped with a BBO probe.

The test system of the next test is A375 cells (BRAF^V600E). Briefly: Western blot analysis of pAKT and pERK in A375. In kind it is cell-based. Particulars: 3hrs treatment. The protocol:
as §1

In test [4] the target is T5, non-prenylated GMPPNP-loaded KRAS^G12V (Homo sapiens, UniProt P01116, G12V).
T5 construct: HSQC experiments were run with ^15N-labeled and GDP-loaded K-RAS^G12V (1–169)
The test can be described thus: 31P-NMR conformational state of KRAS. Particulars: KRAS^G12V 5 mg/ml; 1 mM compound 2 or 0.5 mM CRAF-RBD.
Protocol: as §2

Another test concerns the target T6, KRAS construct 1–180 (Homo sapiens, UniProt P01116, G12V).
T6 construct: (His)6-TEV (N, cleaved yes); made in house; host or cells: E. coli BL21 (DE3), co-transformed with BirA
The test can be described thus: BLI control with KRAS construct lacking the C-terminus. It counts as binding. The note with it: KRAS 1–180 lacking C-terminus and prenyl group, 10 μM compound.

The next test addresses T7, full-length KRAS (Homo sapiens, UniProt P01116, G12V).
T7 construct: Avi-tag-(Gly)8 –KRAS^G12V (2–188) was cloned into the pFastBac1 vector; made in house; host or cells: Tn5 insect cells, co-infected with BirA virus
Briefly: BLI control with full-length KRAS in the absence of PS. In kind it is binding. The protocol: Determination of Kds was performed on the Octet RED platform, according to the manufacturer's recommendations in their application note on small molecule analysis. The prenylated KRAS peptide containing the farnesyl group attached to the terminal cysteine (biotin-[…](farnesyl)-OCH3) was obtained from AnaSpec (Fremont, California). Proteins were obtained as described above. […] The protein was attached to SuperStreptavidin biosensors (ForteBio 18–5057) via Avi-tagged-KRAS G12V:[…], followed by the KRAS protein to a final concentration of 40nM. After incubation for 1h at RT, the protein was loaded into a 96-well plate (Greiner 655209), and loaded a BLI response of 3-4nm. […] A reference sensor was run to remove systematic drift, and a second set of SuperStreptavidin biosensors blocked with biocytin was examined to remove systematic optical interferences, and to check for non-specific binding of compounds to the biosensor. Kds were determined using the ForteBio analysis software tool, which determines Kd from the steady-state plot, or from the determination of the kinetic constants kon and koff. […] After establishing reproducibility with compound 3, all other compounds were measured in singleton.

Test [5] addresses T8, 18-residue KRAS C-terminal prenylated peptide (Homo sapiens, UniProt P01116).
T8 construct: (biotin-[…](farnesyl)-OCH3) was obtained from AnaSpec (Fremont, California); purchased AnaSpec (Fremont, California); host or cells: synthetic peptide
The test can be described thus: BLI with KRAS C-terminal prenylated peptide in PS. It counts as binding. The protocol:
Determination of Kds was performed on the Octet RED platform, according to the manufacturer's recommendations in their application note on small molecule analysis. The prenylated KRAS peptide containing the farnesyl group attached to the terminal cysteine (biotin-[…](farnesyl)-OCH3) was obtained from AnaSpec (Fremont, California). Proteins were obtained as described above. The assay buffer was 25mM Tris containing 190mM glycine, 5mM MgCl2, 0.01% Triton X-100, 1mM DTT and 1.3uM PS (liposome preparation as described above). The protein was attached to SuperStreptavidin biosensors (ForteBio 18–5057) via Avi-tagged-KRAS G12V:GTPγS with C-terminal prenylgroup by adding 2μL of the 5mg/mL solution of PS to 2mL of assay buffer, followed by the KRAS protein to a final concentration of 40nM. After incubation for 1h at RT, the protein was loaded into a 96-well plate (Greiner 655209), and loaded a BLI response of 3-4nm. […] Kds were determined using the ForteBio analysis software tool, which determines Kd from the steady-state plot, or from the determination of the kinetic constants kon and koff. […] After establishing reproducibility with compound 3, all other compounds were measured in singleton.

In test [6] the target is truncated GDP-loaded KRAS. Particulars: cited from earlier work.
On the set-up of test [7]: method as in PMID 22431598. The note with it: cited from earlier work.
[8] abbreviates: GTPγS-loaded full-length prenylated KRAS^G12V in PS, geomean, read-out: Coupled assay IC50.
Where [9] appears, read: BRAF^V600E, no KRAS, geomean, read-out: Counter-screen IC50.
[10] abbreviates: full-length prenylated GTPγS-loaded KRAS^G12V, PS liposomes, read-out: Kd BLI.
The mark [11] stands for this setting: non-processed GDP-loaded KRAS in aqueous buffer, read-out: Kd HSQC.

Like-named read-outs stand apart in the source and are kept apart here. A value given as a limit tells only on which side of the number the result lay.

T2 sequence (P15056 whole entry V600E): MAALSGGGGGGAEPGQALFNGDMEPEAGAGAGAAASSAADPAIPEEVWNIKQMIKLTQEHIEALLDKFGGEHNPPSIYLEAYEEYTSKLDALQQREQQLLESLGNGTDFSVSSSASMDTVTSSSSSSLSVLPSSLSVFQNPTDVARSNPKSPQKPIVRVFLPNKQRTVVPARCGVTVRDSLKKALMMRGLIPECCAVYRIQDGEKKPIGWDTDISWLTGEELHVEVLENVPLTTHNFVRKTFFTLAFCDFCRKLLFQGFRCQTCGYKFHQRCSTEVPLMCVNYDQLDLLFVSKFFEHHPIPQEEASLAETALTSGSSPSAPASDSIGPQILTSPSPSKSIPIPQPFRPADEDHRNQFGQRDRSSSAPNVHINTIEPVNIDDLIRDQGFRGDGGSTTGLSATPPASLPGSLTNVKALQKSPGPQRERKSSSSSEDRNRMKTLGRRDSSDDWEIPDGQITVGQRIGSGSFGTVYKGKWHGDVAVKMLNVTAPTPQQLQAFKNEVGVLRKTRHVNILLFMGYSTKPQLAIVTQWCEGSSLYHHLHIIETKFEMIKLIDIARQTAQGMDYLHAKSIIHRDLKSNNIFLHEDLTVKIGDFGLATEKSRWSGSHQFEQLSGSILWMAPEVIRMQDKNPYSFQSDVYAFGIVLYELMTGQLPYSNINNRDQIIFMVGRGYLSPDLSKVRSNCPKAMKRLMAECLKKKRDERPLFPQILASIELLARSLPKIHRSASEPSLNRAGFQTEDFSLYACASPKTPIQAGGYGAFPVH

`CC(C)NCC(O)COc1cccc2cc[nH]c12` (centres unmarked) [Compound 1]: the figures for the IC50 (in test [1] (setting [8]); at full length BRAF^V600E (setting [9])) were 87 ± 22 µM and above 250 µM, respectively. Besides, in the test on SW1990 cells, the concentration for a half-maximal effect (EC50) is above 30 µM. Further, the “effect on pAKT and pERK (cellular activity)” value (shortened to “effect on pAKT and pERK”) with SW1990 cells (KRAS^G12D) is “inactive at the concentrations tested”.
Take `O=C(N[C@H]1CCN[C@H](Cc2ccc(Cl)cc2)C1)c1c[nH]c2ccc(Br)cc12` [Compound 2]: the values for the IC50 (in test [1] (setting [8]); at full length BRAF^V600E (setting [9])) were 0.8 ± 0.7 µM and 85 ± 47 µM, respectively. Also, at full length BRAF^V600E, the “activity in the counter-screen” value is listed as “minimal activity was observed”. Besides, the EC50 with SW1990 cells was found to be 2.7 ± 1.4 µM. Also, in test [2], the “binding in BLI studies” value is “minor non-specific binding”. For the same compound, the dissociation constant Kd is 0.8 µM in test [2] (setting [10]) and 690 µM in [3]. Further, in the test on SW1990 cells (KRAS^G12D), the “effect on pAKT and pERK” value is “dose-dependent decreases in phosphorylation of both of the pathway markers”. In addition, in the test on A375 cells (BRAF^V600E), the “effect on pAKT levels” value is reported as “unexpected pattern of modulation”. Besides, the “γ-phosphate population (conformational state) by 31P-NMR” value in test [4] was “shift to a single inactive population”.
Consider `Clc1ccc(C[C@@H]2C[C@@H](NCc3c[nH]c4ccccc34)CCN2)cc1` [Compound 3], for which the figures for the IC50 (in test [1] (setting [8]); at full length BRAF^V600E (setting [9])) were 1.2 µM and above 25 µM, respectively. For the same compound, the “activity in the counter-screen” value at full length BRAF^V600E is reported as “minimal activity was observed”. The EC50 in the test with SW1990 cells amounted to 1.2 µM. For the same compound, in test [2] (setting [10]), the Kd was 2.6 ± 0.8 µM. Besides, in the test with SW1990 cells (KRAS^G12D), the “effect on pAKT and pERK” value is “dose-dependent decreases in phosphorylation of both of the pathway markers”. Further, the “effect on pAKT levels” value with A375 cells (BRAF^V600E) is “unexpected pattern of modulation”. For the same compound, the “binding in BLI” value at KRAS construct 1–180 is reported as “minimal binding was observed”; at full-length KRAS (10 μM compound) it was “some binding was observed”; on full-length KRAS (up to 3.3 μM compound) it was “no binding was observed”. Also, the “binding to prenylated peptide in BLI” value in test [5] is listed as “binds to the prenylated peptide in a concentration-dependent manner”.
As for `O=C(N[C@H]1CCN(Cc2ccc(O)nc2)C1)c1c[nH]c2ccc(Cl)cc12` [Compound 4], in test [1], the “activity in the coupled assay” value is “negligible biochemical activity”. The figures for the IC50 (in test [1] (setting [8]); at full length BRAF^V600E (setting [9])) were 49 µM and 115 µM, respectively. Further, the EC50 in the test on SW1990 cells was above 30 µM. Also, the “binding in BLI studies” value in test [2] was “did not bind”. For the same compound, in test [2] (setting [10]), the Kd was above 10 µM. In the test with SW1990 cells (KRAS^G12D), the “effect on pAKT and pERK” value is “inactive at the concentrations tested”. Also, the “binding to prenylated peptide in BLI” value in test [5] is “did not bind”.
Take `Cc1[nH]c2cc(Cl)cc(Cl)c2c1CCN` [Compound 5, reference compound]: the IC50 was found to be 7 µM in [1] and 29 µM on full length BRAF^V600E. In addition, the EC50 in the test on SW1990 cells was determined as 18 µM. Besides, the dissociation constant (Kd) in test [2] was 34 µM; in test [6] (absence of a lipid environment, read-out: published Kd to truncated GDP-loaded KRAS), 1000 µM; in test [6] (setting [11]), 1100 µM. Moreover, in the test on SW1990 cells (KRAS^G12D), the “effect on pAKT and pERK” value is “double-digit μM potency in cells”. Moreover, in [7], the “potency in cell-based assays” value was 16 µM.
`O=C(Nc1ccc2nc(Cc3c[nH]c4ccccc34)[nH]c2c1)C1CCCN1` (centres unmarked) [Compound 6, reference compound]: the “activity in the coupled assay” value in [1] is “negligible activity”. For the same compound, the “activity in the counter-screen” value on full length BRAF^V600E is “negligible activity”. Moreover, the IC50 at full length BRAF^V600E (setting [9]) turned out to be 134 µM. Moreover, in the test with SW1990 cells, the concentration for a half-maximal effect (EC50) is above 30 µM. Also, in the test with SW1990 cells (KRAS^G12D), the “effect on pAKT and pERK” value was “inactive in cells”. For the same compound, the dissociation constant Kd in [6] (setting [11]) was 340 µM.

What is called IC50 is the concentration that inhibits the measured activity by half. Broadly, the EC50 is the concentration that produces a half-maximal response. Usually Kd stands for a measure of binding affinity in units of concentration.
